The source of these data is ChEMBL document CHEMBL3108720, “Polygonumosides A-D, stilbene derivatives from processed roots of Polygonum multiflorum” (J Nat Prod, 2014).

Where only a bound is given, the exact number is not on record here.

The assay relates to Radical scavenging activity. Briefly: Antioxidant activity of the compound assessed as DPPH free radical scavenging activity after 30 mins. Type of assay: functional.
`O=c1oc2cc(O[C@@H]3O[C@H](CO)[C@@H](O)[C@H](O)[C@H]3O)c3c(c2c2c(O)c(O)c(O)cc12)O[C@@H](c1ccc(O)cc1)C3`: the IC50 was determined as 569 µM. Then `O=c1oc2cc(O[C@@H]3O[C@H](CO)[C@@H](O)[C@H](O)[C@H]3O)c3c(c2c2c(O)c(O)c(O)cc12)O[C@H](c1ccc(O)cc1)C3`, with 298 µM.

Take `OC[C@H]1O[C@@H](Oc2c(O)cc(O)cc2[C@@H](O)[C@H](c2ccc(O)cc2)c2c(O)cc(O)c(O[C@@H]3O[C@H](CO)[C@@H](O)[C@H](O)[C@H]3O)c2/C=C/c2ccc(O)cc2)[C@H](O)[C@@H](O)[C@@H]1O`: the IC50 was above 2000 µM.

With `OC[C@H]1O[C@@H](Oc2c(O)cc(O)cc2[C@H](O)[C@@H](c2ccc(O)cc2)c2c(O)cc(O)c(O[C@@H]3O[C@H](CO)[C@@H](O)[C@H](O)[C@H]3O)c2/C=C/c2ccc(O)cc2)[C@H](O)[C@@H](O)[C@@H]1O`, the IC50 is above 2000 µM.
